# Data taken from patent US20230072421A1, “TARGETED RADIOPHARMACEUTICALS FOR THE DIAGNOSIS AND TREATMENT OF PROSTATE CANCER” (Bayer AS, priority 2019, published 2023).
# How the values were obtained:
# [1] = test system: C4-2 cells; assay: Cell proliferation assay (CellTiter-Glo, 5-day exposure), C4-2; assay type: cell-based; conditions: C4-2, 1000 cells/well, Th-227 labelled at 375 kBq/nmol, mean of 1 to 6 experiments
# Method: (§1) Inhibition of cell proliferation of Thorium-227 labeled PMSA SMOL ligands was tested different prostate cancer cell lines, namely 22Rv1, VCaP, C4-2 (all from ATCC, Manassas, Va., USA) and LNCaP (DMSZ, Braunschweig). Cells were seeded using the following conditions in 384 well plates (Corning) in 30 μl of growth media at 4000 cells/well for VCaP cells and 1000 cells/well for 22Rv1, C4-2 and LNCaP cells.
# (§2) Cells were cultivated an incubator at 37° C. and 5% C02 over night. […] In sister plates cell viability at treatment start (d=0) was determined using CellTiter-Glo® assay (CTG, Promega, Madison, Wis., USA), by adding 30 μl per well CTG solution, incubation for 10 min and reading of Luminescence in a PheraStarFSX instrument (BMG Labtech). After a 5-day exposure in the presenced of test compounds, cell viability of treated or untreated control cells was determined again using CellTiter-Glo® assay (Promega, Madison, Wis., USA). […] The DRC software is a Biobook Spreadsheet that was developed by Bayer AG and Bayer Business Services on the IDBS E-Workbook Suite platform (IDBS: ID Business Solutions Ltd., Guildford, UK).
# [2] = test system: 22Rv1 cells; assay: Cell proliferation assay (CellTiter-Glo, 5-day exposure), 22Rv1; assay type: cell-based; conditions: 22Rv1, 1000 cells/well, Th-227 labelled at 375 kBq/nmol, mean of 1 to 6 experiments
# Method: as §1, §2
# [3] = test system: VCaP cells; assay: Cell proliferation assay (CellTiter-Glo, 5-day exposure), VCaP; assay type: cell-based; conditions: 4000 cells/well, Th-227 labelled at 375 kBq/nmol, mean of 1 to 6 experiments
# Method: as §1, §2
# [4] = Biodistribution study in LNCaP tumor-bearing mice (Th227 counted in organs); assay type: in vivo, SCID mice; conditions: 500 kBq/kg; for Th-227 in Blood / Th-227 in Femur and tibia / Th-227 in Kidneys / Th-227 in Liver / Th-227 in Salivary gland / Th-227 in Spleen / Th-227 in Tumor / Th-227 in prostate: study b2999
# Method: (§3) SCID mice were randomly assigned to experimental groups, ten animals per group (efficacy) or n=3-5 per time point of biodistribution study. At the initiation of the study, a testosterone pellet was subcutaneously transplanted, the animals were shaved, tattooed and each cage was labeled with the cage number, study number and number of animals per cage.
# (§4) LNCaP human prostate cancer cells were cultured as described according to the supplier's protocols. Cells were harvested for transplantation in a subconfluent (70%) state. Animals were injected with 5×10^6 LNCaP cells suspended in 100% Matrigel subcutaneously into the flank of the mice.
# Biodistribution study: When tumors reached a predetermined size in mice of ˜50 mm^2 animals were randomized into groups (n=3 animals/time point) and the radioactive compound was once applied intravenously. The i.v. application volume was 100 μl/mice.
# At the predetermined time point, n=3 animals were sacrificed, the organs removed, weight and measured in a Germanium detector to count the Th227 in the sample.
# [5] = test system: LNCaP human prostate cancer cells; assay: LNCaP xenograft efficacy study (T/C tumor area); assay type: in vivo, SCID mice; conditions: Example I
# Method: as §3, §4
# Efficacy study: When tumors reached a predetermined size in mice of 35-50 mm^2 animals were randomized into treatment and control groups (n=10 animals/group) and treatment with the defined radioactive dose was started. The i.v. application volume was 100 μl/mice.
# Tumor response was assessed by determination of the tumor area (product of the longest diameter and its perpendicular) using a caliper. The animal body weight was monitored as a measure for treatment-related toxicity. Measurement of tumor area and body weight was performed two to three times weekly.
# Animals were sacrificed when showing signs of toxicity (>20% body weight loss) or when tumors reached a size of approximately 200 mm^2.
# Tumor growth inhibition is presented as T/C ratio (Treatment/Control) calculated with tumor areas when the vehicle control group had to be closed.
compound,measurement,setting,value
O=C(O)CCC(NC(=O)NC(CCCCNC(=O)C(Cc1ccc2ccccc2c1)NC(=O)C1CCC(CNC(=S)Nc2ccc(CC(CN(CCNC(=O)c3ccn(CCO)c(=O)c3[O-])CCNC(=O)c3ccn(CCO)c(=O)c3[O-])CN(CCNC(=O)c3ccn(CCO)c(=O)c3[O-])CCNC(=O)c3ccn(CCO)c(=O)c3[O-])cc2)CC1)C(=O)O)C(=O)O.[227Th+4] (centres unmarked) [Example 1-F-227Th],Proliferation assay on cancer cell lines by TTCs Default Pivot #3 IC50 [kBq/mL] C4-2 1000cells 375kBq/nmol (mean),[1],2.14 kBq/mL
same,Proliferation assay on cancer cell lines by TTCs Default Pivot #3 IC50 [kBq/mL] 22Rv1 1000cells 375kBq/nmol (mean),[2],1.06 kBq/mL
same,Proliferation assay on cancer cell lines by TTCs Default Pivot #3 IC50 [kBq/mL] VCap 4000cells 375kBq/nmol (mean),[3],3.07 kBq/mL
same,"Background in blood, liver and spleen (in words)",[4]; comparison of % injected dose per gram tissue,highest background
same,Th-227 in Blood,[4]; 0.25 h,4.80 % ID Th-227/g organ
same,Th-227 in Femur and tibia,[4]; 0.25 h,1.46 % ID Th-227/g organ
same,Th-227 in Kidneys,[4]; 0.25 h,51.79 % ID Th-227/g organ
same,Th-227 in Liver,[4]; 0.25 h,2.63 % ID Th-227/g organ
same,Th-227 in Salivary gland,[4]; 0.25 h,0.31 % ID Th-227/g organ
same,Th-227 in Spleen,[4]; 0.25 h,2.35 % ID Th-227/g organ
same,Th-227 in Tumor,[4]; 0.25 h,9.36 % ID Th-227/g organ
same,Th-227 in prostate,[4]; 0.25 h,3.62 % ID Th-227/g organ
same,Th-227 in Blood,[4]; 1 hr,2.28 % ID Th-227/g organ
same,Th-227 in Femur and tibia,[4]; 1 hr,1.68 % ID Th-227/g organ
same,Th-227 in Kidneys,[4]; 1 hr,58.96 % ID Th-227/g organ
same,Th-227 in Liver,[4]; 1 hr,2.41 % ID Th-227/g organ
same,Th-227 in Salivary gland,[4]; 1 hr,2.68 % ID Th-227/g organ
same,Th-227 in Spleen,[4]; 1 hr,1.86 % ID Th-227/g organ
same,Th-227 in Tumor,[4]; 1 hr,10.58 % ID Th-227/g organ
same,Th-227 in prostate,[4]; 1 hr,4.83 % ID Th-227/g organ
same,Th-227 in Blood,[4]; 6 hr,0.35 % ID Th-227/g organ
same,Th-227 in Femur and tibia,[4]; 6 hr,1.30 % ID Th-227/g organ
same,Th-227 in Kidneys,[4]; 6 hr,67.34 % ID Th-227/g organ
same,Th-227 in Liver,[4]; 6 hr,2.19 % ID Th-227/g organ
same,Th-227 in Salivary gland,[4]; 6 hr,1.48 % ID Th-227/g organ
same,Th-227 in Spleen,[4]; 6 hr,1.51 % ID Th-227/g organ
same,Th-227 in Tumor,[4]; 6 hr,13.03 % ID Th-227/g organ
same,Th-227 in prostate,[4]; 6 hr,1.97 % ID Th-227/g organ
same,Th-227 in Blood,[4]; 24 h,0.06 % ID Th-227/g organ
same,Th-227 in Femur and tibia,[4]; 24 h,0.88 % ID Th-227/g organ
same,Th-227 in Kidneys,[4]; 24 h,34.39 % ID Th-227/g organ
same,Th-227 in Liver,[4]; 24 h,2.49 % ID Th-227/g organ
same,Th-227 in Salivary gland,[4]; 24 h,0.75 % ID Th-227/g organ
same,Th-227 in Spleen,[4]; 24 h,0.94 % ID Th-227/g organ
same,Th-227 in Tumor,[4]; 24 h,6.05 % ID Th-227/g organ
same,Th-227 in prostate,[4]; 24 h,0.34 % ID Th-227/g organ
same,Th-227 in Blood,[4]; 72 h,0.02 % ID Th-227/g organ
same,Th-227 in Femur and tibia,[4]; 72 h,0.79 % ID Th-227/g organ
same,Th-227 in Kidneys,[4]; 72 h,12.99 % ID Th-227/g organ
same,Th-227 in Liver,[4]; 72 h,1.96 % ID Th-227/g organ
same,Th-227 in Salivary gland,[4]; 72 h,0.73 % ID Th-227/g organ
same,Th-227 in Spleen,[4]; 72 h,1.14 % ID Th-227/g organ
same,Th-227 in Tumor,[4]; 72 h,3.40 % ID Th-227/g organ
same,Th-227 in prostate,[4]; 72 h,0.68 % ID Th-227/g organ
same,Th-227 in Blood,[4]; 168 h,0.00 % ID Th-227/g organ
same,Th-227 in Femur and tibia,[4]; 168 h,1.07 % ID Th-227/g organ
same,Th-227 in Kidneys,[4]; 168 h,6.79 % ID Th-227/g organ
same,Th-227 in Liver,[4]; 168 h,2.14 % ID Th-227/g organ
same,Th-227 in Salivary gland,[4]; 168 h,0.74 % ID Th-227/g organ
same,Th-227 in Spleen,[4]; 168 h,1.34 % ID Th-227/g organ
same,Th-227 in Tumor,[4]; 168 h,1.13 % ID Th-227/g organ
same,Th-227 in prostate,[4]; 168 h,0.13 % ID Th-227/g organ
same,Th-227 in Blood,[4]; 336 h,0.00 % ID Th-227/g organ
same,Th-227 in Femur and tibia,[4]; 336 h,1.18 % ID Th-227/g organ
same,Th-227 in Kidneys,[4]; 336 h,2.29 % ID Th-227/g organ
same,Th-227 in Liver,[4]; 336 h,1.69 % ID Th-227/g organ
same,Th-227 in Salivary gland,[4]; 336 h,0.42 % ID Th-227/g organ
same,Th-227 in Spleen,[4]; 336 h,1.41 % ID Th-227/g organ
same,Th-227 in Tumor,[4]; 336 h,0.74 % ID Th-227/g organ
same,Th-227 in prostate,[4]; 336 h,0.22 % ID Th-227/g organ
same,T/Carea,"[5]; day 27, 2 x 400 + 2 x 750 kBq/kg weekly",1.03
same,T/Carea,"[5]; day 37, 2 x 400 + 3 x 750 kBq/kg",0.82
